Reference: article PMC10648349, “Aromatic Diboronic Acids as Effective KPC/AmpC Inhibitors” (Molecules, 2023)
Values after ≈ are worked out from the molar mass of the structure shown.

Legend:
B. subtilis ATCC 6633 = assay: direct antimicrobial activity (disc-diffusion); assay type: cell-based; details: Bacillus subtilis, ATCC6633; 0.4 mg per disc, 9 mm disc (linezolid 0.03 mg, 6 mm disc); - no zone; read-out: Diameter of inhibition zone
How it was run: (§1)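 Disc-diffusion (0.4 mg compound per disc, DMSO solutions), MIC, and MBC for bacteria or MFC for yeasts, run per EUCAST and CLSI recommendations. References: nitrofurantoin for Gram-negative rods, linezolid for Gram-positive bacteria, fluconazole for fungi.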

E. faecium ATCC 6057 = assay: direct antimicrobial activity (disc-diffusion, MIC, MBC); assay type: cell-based; details: Enterococcus faecium, ATCC6057; for zone of inhibition at 0.4 mg/disc: 0.4 mg per disc, 9 mm disc (linezolid 0.03 mg, 6 mm disc), - no zone, read-out: Diameter of inhibition zone
How it was run: as §1

[1] = tested on: S. epidermidis ATCC 12228; assay: as above; assay type: cell-based; details: Staphylococcus epidermidis, ATCC12228; for zone of inhibition at 0.4 mg/disc: 0.4 mg per disc, 9 mm disc (linezolid 0.03 mg, 6 mm disc), - no zone, read-out: Diameter of inhibition zone
How it was run: as §1

S. aureus ATCC 6538P = assay: as above; assay type: cell-based; details: Staphylococcus aureus, ATCC6538P; for zone of inhibition at 0.4 mg/disc: 0.4 mg per disc, 9 mm disc (linezolid 0.03 mg, 6 mm disc), - no zone, read-out: Diameter of inhibition zone
How it was run: as §1

[2] = tested on: S. aureus ATCC 43300 MRSA; assay: as above; assay type: cell-based; details: Staphylococcus aureus; for zone of inhibition at 0.4 mg/disc: 0.4 mg per disc, 9 mm disc (linezolid 0.03 mg, 6 mm disc), - no zone, read-out: Diameter of inhibition zone
How it was run: as §1

E. faecalis ATCC 29212 = assay: as above; assay type: cell-based; details: Enterococcus faecalis, ATCC29212; for zone of inhibition at 0.4 mg/disc: 0.4 mg per disc, 9 mm disc (linezolid 0.03 mg, 6 mm disc), - no zone, read-out: Diameter of inhibition zone
How it was run: as §1

[3] = tested on: K. pneumoniae ATCC 700603 ESBL-positive; assay: combination disc test CDT-ESBL; assay type: cell-based; details: Klebsiella pneumoniae, ATCC700603, read-out: Diameter of inhibition zone, CAZ-30 disc with agent; for zone of inhibition at 100 µg/disc: agent 0.1 mg per disc
[4] = tested on: K. pneumoniae ATCC BAA 1705 KPC(+); assay: screening test of direct antimicrobial activity (STDA), disc-diffusion; assay type: cell-based; details: Klebsiella pneumoniae, BAA1705; 0.3 mg per disc; - no zone; read-out: Diameter of inhibition zone around disc with tested agent
Procedure: (§2) Prior to combination disc tests, screening tests of direct antimicrobial activity (STDA) of the tested agent against β-lactamase-producing strains were performed by the disc-diffusion method. Discs with 0.3 mg, 0.1 mg, and 0.03 mg of each agent were examined. The highest amount of an agent that caused no effect on bacterial growth was used in further experiments.

E. coli 77 CMY-2(+) = assay: as above; assay type: cell-based; details: Escherichia coli; 0.3 mg per disc; - no zone; read-out: Diameter of inhibition zone around disc with tested agent
Procedure: as §2

[5] = tested on: K. pneumoniae ATCC 700603 ESBL(+); assay: as above; assay type: cell-based; details: Klebsiella pneumoniae, ATCC700603; 0.3 mg per disc; - no zone; read-out: Diameter of inhibition zone around disc with tested agent
Procedure: as §2

[6] = tested on: P. aeruginosa MUW 700 AmpC(+); assay: as above; assay type: cell-based; details: Pseudomonas aeruginosa; 0.3 mg per disc; - no zone; read-out: Diameter of inhibition zone around disc with tested agent
Procedure: as §2

[7] = tested on: E. coli 77 CMY-2-positive; assay: checkerboard microdilution, antibiotic plus tested agent; assay type: cell-based, Escherichia coli
How it was run: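 Read-out is the antibiotic MIC with agent present, plus FICI = combined/alone MIC ratios summed for both partners. Meropenem pairs served for carbapenemase strains and ceftazidime pairs for the AmpC strain. Agent or PBA was tested at 4–16 mg/L.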

SMILES	zone of inhibition at 0.4 mg/disc (B. subtilis ATCC 6633)	MIC (E. faecium ATCC 6057)	zone of inhibition at 0.4 mg/disc (E. faecium ATCC 6057)	MIC [1]	zone of inhibition at 0.4 mg/disc [1]	MIC (S. aureus ATCC 6538P)	zone of inhibition at 0.4 mg/disc (S. aureus ATCC 6538P)	MIC [2]	zone of inhibition at 0.4 mg/disc [2]	MIC (E. faecalis ATCC 29212)	zone of inhibition at 0.4 mg/disc (E. faecalis ATCC 29212)	zone of inhibition at 100 µg/disc [3]	zone of inhibition at 300 µg/disc [4]	zone of inhibition at 300 µg/disc (E. coli 77 CMY-2(+))	zone of inhibition at 300 µg/disc [5]	zone of inhibition at 300 µg/disc [6]	zone of inhibition at 300 µg/disc ([3]; agent 0.3 mg per disc)	Average FICI with ceftazidime [7]	The lowest FICI with ceftazidime [7]
OB(O)c1cc(Br)c(B(O)O)cc1Br [1i]	18 mm	200 µg/mL (≈ 618 µM)	11 mm	50 µg/mL (≈ 155 µM)	21 mm	25 µg/mL (≈ 77.3 µM)	14 mm	100 µg/mL (≈ 309 µM)	11 mm	200 µg/mL (≈ 618 µM)	14 mm	14 mm	15 mm	16 mm	13 mm	12 mm			
OB(O)c1cc(F)cc(B(O)O)c1 [2b]	17 mm	400 µg/mL (≈ 2180 µM)	14 mm	50 µg/mL (≈ 272 µM)	19 mm	100 µg/mL (≈ 544 µM)	14 mm	400 µg/mL (≈ 2180 µM)	15 mm	400 µg/mL (≈ 2180 µM)				13 mm		11 mm	16 mm	0.17	0.10
OB(O)c1cc(F)c(F)c(B(O)O)c1 [2d]	15 mm	200 µg/mL (≈ 991 µM)	14 mm	50 µg/mL (≈ 248 µM)	12 mm	50 µg/mL (≈ 248 µM)	22 mm	100 µg/mL (≈ 496 µM)	19 mm	200 µg/mL (≈ 991 µM)	14 mm	13 mm	11 mm	15 mm	11 mm	12 mm		0.19	0.14
OB(O)c1ccc(B(O)O)c(F)c1F [1c]	28 mm	200 µg/mL (≈ 991 µM)	15 mm	50 µg/mL (≈ 248 µM)	28 mm	25 µg/mL (≈ 124 µM)	22 mm	50 µg/mL (≈ 248 µM)	22 mm	200 µg/mL (≈ 991 µM)	16 mm	14 mm	12 mm	17 mm	14 mm	13 mm		0.19	0.14
